# Entries after “also recorded” stand apart in the source; their conditions may differ. Read-outs that look alike come from different tables or passages of the source.
# Assays:
# [1] = test system: 5xFAD mice; assay: Contextual and cued conditioned fear test; assay type: in vivo, mouse; settings: diAcCA PO for 3 months
# Experimental: (§1) diAcCA or control vehicle was administered three times per week for 3 months to 5xFAD Tg or WT littermate control mice starting at approximately 5 months of age by oral gavage (designated here as “per os” or PO). Three different doses were used (10 mg/kg, 20 mg/kg, or 50 mg/kg). diAcCA was dissolved in olive oil vehicle, a non-polar organic solvent. For vehicle control, we administered olive oil alone. A total of 45 animals were used in this study, with 7–8 animals in each group.
# Contextual and cued learning processes in mice rely on the hippocampus and amygdala, respectively. Fear conditioning is used to evaluate both of these processes. During the conditioning period, mice are trained to associate a context (distinctive environment) and a conditioned stimulus (CS, neutral stimulus consisting of a tone and light) with an unpleasant foot shock to which the mice learn to respond by freezing their movement. Here, we evaluated hippocampal function using the contextual and cued conditioned fear test. […]
# On day 1, the mice were acclimatized to the chambers in a 5 min session with no shock. […] On day 3, a 5 min trial took place in the original training chamber (context test) and contextual conditioning was evaluated by observing freezing behavior. […]
# [2] = test system: 5xFAD mice; assay: Quantitative confocal immunohistochemistry (Q-IHC) of hippocampal sections; assay type: in vivo, mouse
# Experimental: The 5xFAD mice bear five mutations linked to AD. Three of these are in the App695 gene [Swedish (APP K670N/M671L), Florida (I716V), London (V717I)], and two are in the PSEN1 gene [L286V, M146L]. Male 5xFAD breeder mice were obtained from Jackson Laboratories (#034848-JAX, Bar Harbor, ME, USA) and crossed with female 6XC57BL6 mice. Genotyping was performed by PCR. First-generation pups were used for all experiments with 5xFAD transgenic (Tg) and WT littermate control mice.
# as §1
# For euthanasia, animals were deeply anesthetized with isoflurane and then transcardially perfused with ice-cold phosphate-buffered saline (PBS) followed by 4% paraformaldehyde (PFA) for fixation. Brains were isolated and post-fixed in 4% PFA overnight at 4 °C. The next day, brains were washed and transferred to 30% sucrose at 4 °C until sectioning. Every brain then received a masked code for the following steps, and the code was only broken after all quantifications were completed.
# Sagittal sections (40 μm-thick) were prepared using a vibratome (Leica VT1200S) and incubated in blocking buffer (5% goat serum, 0.5% Triton X-100 in PBS) for 1 h at room temperature to prevent non-specific binding. Following blocking, floating sections were incubated in their respective primary antibody solutions on a shaker overnight at 4 °C. Antibodies against the following proteins were used in this study: NeuN (D4G4O, 1:500, rabbit mAb #24307, Cell Signaling Technology, Danvers, MA, USA), Synapsin I (D12G5, 1:500, rabbit mAb #5297, Cell Signaling Technology), phosphor (Ser202, Thr205)-tau (AT8, 1:500, mAb #MN1020, ThermoFisher Scientific, Waltham, MA, USA), glial fibrillary acidic protein (GFAP) (GA5, 1:500, MAB360, Millipore Sigma, Carlsbad, CA, USA), ionized calcium binding adaptor molecule 1 (Iba1) (EPR16589, 1:1000, #ab178847, Abcam, Waltham, MA, USA), human nuclear antigen (HuNu) (1:500, mouse mAb #191181, Abcam), and caspase-1 (1:50, rabbit pAb #AB1871, Sigma Aldrich, St. Louis, MO, USA). For Aβ staining, floating sections were pre-treated with 90% formic acid (28905, Thermo Scientific) for 1 min at room temperature. They were then rinsed and blocked, following which they were incubated in anti-β-amyloid 17–24 antibody (4G8, 1:1000, #800708, BioLegend, San Diego, CA, USA) on a shaker overnight at 4 °C.
# The next day, immunostaining was performed on brain sections after 3 washes in PBS and incubation in the appropriate secondary antibody solution on a shaker for 2 h at room temperature. Secondary antibodies included Alexa 488 (A11008, 1:500, goat anti-rabbit, Life Technologies, Carlsbad, CA, USA) and Alexa 555 (A21424, 1:500, goat anti-mouse, Life Technologies). The sections were again washed with PBS 3 times, mounted on Superfrost plus slides (12-550-15, Fisher Scientific, Waltham, MA, USA) and dried at room temperature. The slides were then coated with Vectashield plus antifade mounting medium, stained with nuclear dye DAPI (H-2000, Vector Laboratories, San Francisco, CA, USA), and a coverslip (12541057, Fisher Scientific) was applied. For each brain, 3–6 images were acquired for each individual marker using a confocal fluorescence microscope (Nikon Eclipse Ti2) (Figure 1, Figure 2 and Figure 3, Supplementary Figure S1). Post image processing, quantification was performed using Fiji ImageJ (1.54f). For the Iba1-stained slides, a mask was made of cells co-labeled for HuNu and Iba1, and then caspase 1 staining was measured. […]
# [3] = Brain levels of CA from prior plasma/brain PK data; assay type: in vivo; settings: for Cmax: mouse, read-out: predicted Cmax in the brain
# Experimental: We also determined the stability and bioavailability of diAcCA compared to CA. For this purpose, individual mice were administered CA or diAcCA IV or via oral gavage/PO. For CA, the doses were 3 mg/kg for the IV route and 10 mg/kg for oral gavage/PO, and for diAcCA 10 mg/kg by oral gavage/PO. Plasma concentrations were evaluated at ten different time points over the next 72 h (raw data shown in Tables S1 and S2, Supplementary Materials).
# The extensive existing PK data obtained on plasma and brain samples for CA, correlated with prior in vivo efficacy data for CA [26, 33, 49], allowed us to calculate the therapeutic dose range that we wanted to test here for diAcCA.
# [4] = 5xFAD hippocampus, 10, 20 or 50 mg/kg PO three times a week for 3 months vs vehicle
structure (smiles),measurement,setting,value
CC(=O)Oc1c(C(C)C)cc2c(c1OC(C)=O)[C@@]1(C(=O)O)CCCC(C)(C)[C@@H]1CC2 [diAcCA],"context test of conditioned fear, freezing behavior",[1],showed freezing behavior similar to WT mice
same,"GFAP MFI, astrocytes",[2]; [4],significantly improved; also recorded: reduced GFAP MFI
same,"Iba1 integrated density (ID), microglial density",[2]; [4],significantly improved; also recorded: improved IBA ID
same,"NeuN mean fluorescence intensity (MFI), neuronal density",[2]; [4],significantly improved; also recorded: restored NeuN MFI (representing neuronal number) to near normal levels
same,"Synapsin I MFI, presynaptic density",[2]; [4],significantly improved; also recorded: restored Synapsin I MFI (located in the presynaptic terminal of the synapse) to near normal levels
same,percent area of Aβ accumulation (4G8),[2]; [4],significantly reduced the area of Aβ accumulation; also recorded: significantly reduced the area of Aβ aggregates
same,percentage area of pTau aggregates (AT8),"[2]; 5xFAD hippocampus, each treatment dose (10, 20, 50 mg/kg PO, 3 months) vs vehicle",remarkable decrease in the area of pTau aggregates; also recorded: dramatically reduced the area of pTau aggregates
same,time to reach neurotherapeutic levels in the brain,[3]; after conversion of diAcCA to CA,less than 1 h
same,Cmax,[3]; diAcCA 10 mg/kg PO,~600 nM
same,Cmax,[3]; diAcCA 20 mg/kg PO,~1200 nM
same,Cmax,[3]; diAcCA 50 mg/kg PO,~3000 nM
